Measured values reported in ChEMBL document CHEMBL1131644, “1-Methoxy-agroclavine from Penicillium sp. WC75209, a novel inhibitor of the Lck tyrosine kinase” (Bioorg Med Chem Lett, 1998).
The source made the active and inactive calls. The rule behind the calls is not given here.

Columns and labels:
[1] = target: T1, CaM kinase II (Homo sapiens) (UniProt Q13557+Q13555+Q13554+Q9UQM7); assay: (§1) Inhibition of [Ca(2+)]/Calmodulin-dependent Type II protein kinase at 10 uM; assay type: protein assay
[2] = target: Tyrosine-protein kinase Fyn (Homo sapiens) (UniProt P06241); assay: Inhibition of Fyn protein kinase at 10 uM
[3] = target: Receptor tyrosine-protein kinase erbB-2 (Homo sapiens) (UniProt P04626); assay: Inhibition of Her2, ErbB2 receptor tyrosine kinase at 10 uM
[4] = target: T2, Tyrosine-protein kinase Lck (Homo sapiens, UniProt P06239); assay: Inhibition of Lck protein kinase at 10 uM
Target sequence in this assay (P06239 2-509 limits assumed): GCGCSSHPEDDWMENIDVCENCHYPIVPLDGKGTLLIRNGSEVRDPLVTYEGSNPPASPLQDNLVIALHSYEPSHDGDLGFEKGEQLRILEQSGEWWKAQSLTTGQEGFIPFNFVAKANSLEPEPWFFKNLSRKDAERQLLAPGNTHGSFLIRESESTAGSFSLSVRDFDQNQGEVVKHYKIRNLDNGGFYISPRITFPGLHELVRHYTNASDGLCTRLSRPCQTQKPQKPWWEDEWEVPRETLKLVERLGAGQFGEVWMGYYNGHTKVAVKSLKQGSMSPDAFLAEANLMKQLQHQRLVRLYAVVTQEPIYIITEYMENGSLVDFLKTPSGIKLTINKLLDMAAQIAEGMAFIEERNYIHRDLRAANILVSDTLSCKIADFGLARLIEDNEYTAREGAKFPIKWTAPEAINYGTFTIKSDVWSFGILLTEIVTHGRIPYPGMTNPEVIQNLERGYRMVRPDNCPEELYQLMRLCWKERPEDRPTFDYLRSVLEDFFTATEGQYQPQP

M109 = assay: Cytotoxic effect on M109 mouse lung carcinoma cells at 40 uM (No effect); assay type: functional, cell-based
[5] = target: Protein kinase C beta type (Homo sapiens) (UniProt P05771); assay: Inhibition of Protein Kinase C beta at 10 uM Histone H1 substrate (Inactive)
[6] = target: Protein kinase C alpha type (Homo sapiens) (UniProt P17252); assay: Inhibition of Protein kinase C alpha at 10 uM Histone H1 substrate
[7] = target: T1, CaM kinase II (Homo sapiens); assay: as §1; assay type: protein assay; remark: listed apart in the source
[8] = target: Protein kinase C gamma type (Homo sapiens) (UniProt P05129); assay: Inhibition of Protein Kinase C gamma at 10 uM Histone H1 substrate
[9] = Inhibition of cAMP-dependent protein kinase at 10 uM Histone H1 substrate
[10] = target: T2, Tyrosine-protein kinase Lck; assay: Inhibition of p56 lck autophosphorylation, gamma-[33P]ATP incorporation
Target sequence in this assay (P06239 whole entry): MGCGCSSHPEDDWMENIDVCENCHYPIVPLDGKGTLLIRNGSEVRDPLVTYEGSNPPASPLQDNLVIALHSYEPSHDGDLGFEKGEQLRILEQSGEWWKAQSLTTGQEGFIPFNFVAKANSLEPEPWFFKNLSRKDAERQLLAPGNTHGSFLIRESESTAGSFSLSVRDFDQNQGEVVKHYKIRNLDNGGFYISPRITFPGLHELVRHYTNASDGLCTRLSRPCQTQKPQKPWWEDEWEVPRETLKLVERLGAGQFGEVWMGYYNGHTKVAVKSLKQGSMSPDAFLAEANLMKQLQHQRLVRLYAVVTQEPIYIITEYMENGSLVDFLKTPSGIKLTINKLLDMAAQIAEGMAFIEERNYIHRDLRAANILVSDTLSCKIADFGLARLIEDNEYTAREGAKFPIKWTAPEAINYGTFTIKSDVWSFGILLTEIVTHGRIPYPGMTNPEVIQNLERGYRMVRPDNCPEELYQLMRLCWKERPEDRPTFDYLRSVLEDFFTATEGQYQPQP

[11] = target: T3, Tyrosine-protein kinase SYK (Homo sapiens, UniProt P43405); assay: Inhibition of p72 syk autophosphorylation
[12] = target: T4, Tyrosine-protein kinase Blk (Homo sapiens, UniProt P51451); assay: (§2) Inhibition of p74 Blk tyrosine kinase autophosphorylation (Inactive)
[13] = target: Epidermal growth factor receptor (Homo sapiens) (UniProt P00533); settings: 10 uM
Description: Inhibition of Epidermal growth factor receptor at 10 uM

[14] = target: T2, Tyrosine-protein kinase Lck; assay: Inhibition of p56 lck autophosphorylation, gamma-[33P]ATP incorporation (Inactive)
Target sequence in this assay (P06239 whole entry): as above

[15] = target: T3, Tyrosine-protein kinase SYK; assay: Inhibition of p72 syk autophosphorylation (Inactive)
[16] = target: T4, Tyrosine-protein kinase Blk; assay: as §2; remark: listed apart in the source

Chain of Protein kinase C beta type (Homo sapiens) (P05771 2-671 limits assumed): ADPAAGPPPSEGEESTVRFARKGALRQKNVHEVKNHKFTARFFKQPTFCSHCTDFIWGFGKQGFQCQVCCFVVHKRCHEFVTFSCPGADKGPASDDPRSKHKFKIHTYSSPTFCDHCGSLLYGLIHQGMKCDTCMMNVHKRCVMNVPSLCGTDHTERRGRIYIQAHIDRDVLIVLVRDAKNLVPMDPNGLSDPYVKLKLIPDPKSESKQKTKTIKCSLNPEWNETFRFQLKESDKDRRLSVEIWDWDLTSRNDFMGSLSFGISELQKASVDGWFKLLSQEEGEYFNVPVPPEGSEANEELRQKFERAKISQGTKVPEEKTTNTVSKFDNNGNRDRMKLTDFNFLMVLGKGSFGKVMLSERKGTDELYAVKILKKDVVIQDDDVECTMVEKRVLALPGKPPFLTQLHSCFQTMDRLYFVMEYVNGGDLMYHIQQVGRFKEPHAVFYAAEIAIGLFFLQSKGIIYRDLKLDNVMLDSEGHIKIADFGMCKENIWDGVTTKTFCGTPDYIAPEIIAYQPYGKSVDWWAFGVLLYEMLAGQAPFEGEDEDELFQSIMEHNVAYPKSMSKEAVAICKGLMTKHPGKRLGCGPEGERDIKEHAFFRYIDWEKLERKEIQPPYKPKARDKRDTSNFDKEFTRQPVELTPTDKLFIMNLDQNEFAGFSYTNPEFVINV
Chain of Tyrosine-protein kinase Fyn (Homo sapiens) (P06241 2-537 limits assumed): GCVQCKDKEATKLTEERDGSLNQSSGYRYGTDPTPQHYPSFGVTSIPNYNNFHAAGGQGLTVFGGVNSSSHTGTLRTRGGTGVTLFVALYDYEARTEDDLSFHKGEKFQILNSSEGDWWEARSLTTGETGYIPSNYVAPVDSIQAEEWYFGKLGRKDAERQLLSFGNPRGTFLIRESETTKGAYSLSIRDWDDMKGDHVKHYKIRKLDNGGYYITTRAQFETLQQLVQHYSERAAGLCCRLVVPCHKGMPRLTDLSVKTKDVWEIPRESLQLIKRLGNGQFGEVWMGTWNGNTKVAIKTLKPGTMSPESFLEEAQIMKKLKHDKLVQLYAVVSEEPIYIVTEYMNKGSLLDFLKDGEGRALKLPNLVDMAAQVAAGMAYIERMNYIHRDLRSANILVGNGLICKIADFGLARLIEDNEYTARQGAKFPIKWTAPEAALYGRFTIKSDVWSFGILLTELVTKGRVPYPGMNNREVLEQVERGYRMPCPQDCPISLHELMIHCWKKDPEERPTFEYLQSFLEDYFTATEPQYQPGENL
Chain of Epidermal growth factor receptor (Homo sapiens) (P00533 whole entry): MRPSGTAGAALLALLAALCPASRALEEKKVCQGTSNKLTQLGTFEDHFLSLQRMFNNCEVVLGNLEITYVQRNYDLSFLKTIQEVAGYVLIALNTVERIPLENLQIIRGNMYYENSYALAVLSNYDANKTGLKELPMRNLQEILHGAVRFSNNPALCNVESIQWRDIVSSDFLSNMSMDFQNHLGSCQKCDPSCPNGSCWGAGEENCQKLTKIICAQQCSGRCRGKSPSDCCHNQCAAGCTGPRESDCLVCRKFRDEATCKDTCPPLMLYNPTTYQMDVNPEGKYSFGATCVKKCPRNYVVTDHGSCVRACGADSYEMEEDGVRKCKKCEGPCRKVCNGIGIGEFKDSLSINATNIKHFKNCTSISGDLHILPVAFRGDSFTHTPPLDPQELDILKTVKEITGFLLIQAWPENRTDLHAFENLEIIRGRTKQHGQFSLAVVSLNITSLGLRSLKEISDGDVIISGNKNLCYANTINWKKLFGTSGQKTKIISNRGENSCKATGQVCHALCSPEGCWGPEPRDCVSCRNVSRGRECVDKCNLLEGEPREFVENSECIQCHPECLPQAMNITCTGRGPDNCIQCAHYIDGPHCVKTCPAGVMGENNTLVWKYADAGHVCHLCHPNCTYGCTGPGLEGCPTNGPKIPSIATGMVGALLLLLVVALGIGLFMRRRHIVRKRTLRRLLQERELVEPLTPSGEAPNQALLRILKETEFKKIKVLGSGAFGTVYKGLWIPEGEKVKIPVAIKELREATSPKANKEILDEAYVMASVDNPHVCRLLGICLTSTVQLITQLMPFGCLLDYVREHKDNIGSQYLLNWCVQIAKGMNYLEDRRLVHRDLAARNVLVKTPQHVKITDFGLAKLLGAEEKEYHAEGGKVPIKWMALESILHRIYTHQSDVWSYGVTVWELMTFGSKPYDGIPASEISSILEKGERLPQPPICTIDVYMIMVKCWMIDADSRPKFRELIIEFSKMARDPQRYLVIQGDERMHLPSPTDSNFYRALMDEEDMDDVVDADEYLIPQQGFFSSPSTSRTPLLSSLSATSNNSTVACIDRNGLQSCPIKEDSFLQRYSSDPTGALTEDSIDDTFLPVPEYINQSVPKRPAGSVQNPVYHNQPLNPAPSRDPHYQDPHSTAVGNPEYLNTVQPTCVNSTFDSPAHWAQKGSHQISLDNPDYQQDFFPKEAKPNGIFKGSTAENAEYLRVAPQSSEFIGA
Chain of Receptor tyrosine-protein kinase erbB-2 (Homo sapiens) (P04626 whole entry): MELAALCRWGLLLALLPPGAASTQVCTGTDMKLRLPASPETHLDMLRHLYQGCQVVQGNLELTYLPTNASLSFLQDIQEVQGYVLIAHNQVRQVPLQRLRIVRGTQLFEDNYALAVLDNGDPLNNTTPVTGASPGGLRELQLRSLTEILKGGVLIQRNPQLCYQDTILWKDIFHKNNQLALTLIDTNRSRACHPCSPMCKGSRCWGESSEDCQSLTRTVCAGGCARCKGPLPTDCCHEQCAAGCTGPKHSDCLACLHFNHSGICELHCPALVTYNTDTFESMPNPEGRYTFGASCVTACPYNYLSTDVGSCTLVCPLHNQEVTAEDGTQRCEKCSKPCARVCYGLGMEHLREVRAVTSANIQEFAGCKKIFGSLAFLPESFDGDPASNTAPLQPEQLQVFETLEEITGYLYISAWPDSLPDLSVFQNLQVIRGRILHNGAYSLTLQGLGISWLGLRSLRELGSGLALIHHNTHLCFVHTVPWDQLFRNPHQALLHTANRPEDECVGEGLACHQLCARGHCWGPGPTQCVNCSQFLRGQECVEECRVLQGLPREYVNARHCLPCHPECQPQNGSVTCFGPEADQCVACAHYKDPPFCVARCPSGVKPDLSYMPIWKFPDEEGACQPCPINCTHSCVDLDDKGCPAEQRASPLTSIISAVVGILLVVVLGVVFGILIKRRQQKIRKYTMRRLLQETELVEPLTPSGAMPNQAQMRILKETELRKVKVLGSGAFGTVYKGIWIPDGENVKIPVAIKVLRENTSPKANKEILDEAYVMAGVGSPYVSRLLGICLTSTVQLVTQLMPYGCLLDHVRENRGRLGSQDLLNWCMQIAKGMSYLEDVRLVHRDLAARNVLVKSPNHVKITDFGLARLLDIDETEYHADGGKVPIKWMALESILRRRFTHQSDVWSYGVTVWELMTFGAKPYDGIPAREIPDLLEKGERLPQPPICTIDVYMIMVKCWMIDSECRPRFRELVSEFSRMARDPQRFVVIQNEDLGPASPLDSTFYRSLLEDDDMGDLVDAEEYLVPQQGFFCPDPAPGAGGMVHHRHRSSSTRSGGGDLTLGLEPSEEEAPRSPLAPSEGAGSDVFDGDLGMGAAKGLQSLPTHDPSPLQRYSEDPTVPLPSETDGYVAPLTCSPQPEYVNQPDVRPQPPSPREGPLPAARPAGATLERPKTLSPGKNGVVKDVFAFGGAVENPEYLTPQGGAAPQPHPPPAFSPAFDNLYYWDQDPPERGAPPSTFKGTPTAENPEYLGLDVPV

Row | SMILES | inhibition [1] | inhibition [2] | inhibition [3] | inhibition [4] | Cytotoxicity (M109) | inhibition [5] | inhibition [6] | inhibition [7] | inhibition [8] | inhibition [9] | IC50 [10] | IC50 [11] | inhibition [12] | inhibition [13] | IC50 [14] | IC50 [15] | IC50 [16]
1 | COn1cc2c3c(cccc31)[C@@H]1C=C(C)CN(C)[C@@H]1C2 | inactive | 19% | 9% | 42% | inactive | inactive | inactive | inactive | inactive | inactive | 8.5 µM | 285 µM | inactive | 14% | – | – | –
2 | CC1=C[C@@H]2c3cccc4[nH]cc(c34)C[C@H]2N(C)C1 [AGROCLAVINE] | – | – | – | – | – | – | – | – | – | – | – | – | – | – | Not Active | Not Active | Not Active
3 | CN1C[C@H](CO)C=C2c3cccc4[nH]cc(c34)C[C@H]21 | – | – | – | – | – | – | – | – | – | – | – | – | – | – | Not Active | – | –
